Test results: patent US20230181556A1, “USE OF PSYCHOTROPIC DRUGS FOR THE TREATMENT OF CORONAVIRUS INFECTIONS” (priority 2020, published 2023)

Test system: SARS-CoV-2 clinical isolates D614G
Assay type: cell-based

Compound	IC50 [µM]
CN1CCCC(n2nc(Cc3ccc(Cl)cc3)c3ccccc3c2=O)CC1 (centres unmarked) [Azelastine]	5.75
CC(CN1c2ccccc2Sc2ccccc21)N(C)C (centres unmarked) [Promethazine]	9.22
